From ChEMBL document CHEMBL1201862, “PubChem BioAssay data set” (2004)
Where a name gives a salt, the structure may show the parent alone. Active and inactive are the calls of the source.

Assays:
[1] = target: Female germline-specific tumor suppressor gld-1 (Caenorhabditis elegans, UniProt Q17339); assay: inhibitors of GLD-1 binding to TGE RNA, dose response, biochemical, fluorescence polarization, C. elegans (AID 2802);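 further: fluorescence polarization of labeled TGE RNA bound by purified gld-1 protein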
Protein Rev = Protein Rev (Human immunodeficiency virus type 1 group M subtype B (isolate HXB2)(HIV-1), UniProt P04618); assay: inhibitors of Rev binding to RRE RNA, dose response, biochemical, fluorescence polarization, HIV-1 (AID 434976); parameters: species or system Human immunodeficiency virus 1
Fatty acid synthase [2] = target: T1, Fatty acid synthase (Homo sapiens, UniProt P49327); assay: FAS thioesterase domain inhibitors, dose response, biochemical, kinetic fluorescence intensity (AID 624326); format: functional;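 further: rate of fluorescence rise from hydrolysis of a fluorogenic O-methyl fluorescein ester substrate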
X-box-binding protein 1 = X-box-binding protein 1 (Homo sapiens, UniProt P17861); format: functional, Cricetulus griseus;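 further: confirmatory dose-response counter-screen serving a CHOP assay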
Fatty acid synthase [3] = target: T1, Fatty acid synthase; assay: FAS thioesterase domain inhibitors, dose response, biochemical, endpoint fluorescence intensity, uHTS hits (AID 624327); format: functional;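 further: fluorescence from hydrolysis of an O-methyl fluorescein acyl ester substrate by the enzyme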
[4] = target: Dual specificity protein phosphatase 3 (Homo sapiens, UniProt P51452); assay: VHR1 inhibitor Ki determination, SAR follow-up, biochemical, colorimetric (AID 2004)
Bcl-2-like protein 10 = Bcl-2-like protein 10 (Homo sapiens, UniProt Q9HD36); assay: displacers of TR3 peptide from Bcl-B, primary screen, selectivity assay for Bfl-1 inhibitor project, biochemical, fluorescence polarization, FITC-TR3 peptide (AID 748);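 further: fluorescence polarization from a fluorescein-labelled TR3 peptide binding purified Bcl-B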
[5] = target: T2, Endoribonuclease toxin MazF (Escherichia coli K-12, UniProt P0AE70); assay: fluorescent RNA oligo signal without MazF, dose response, counter-screen for MazEF activator project, biochemical, fluorescence, single-stranded RNase substrate (AID 588502); format: functional
T2 sequence (P0AE70 whole entry): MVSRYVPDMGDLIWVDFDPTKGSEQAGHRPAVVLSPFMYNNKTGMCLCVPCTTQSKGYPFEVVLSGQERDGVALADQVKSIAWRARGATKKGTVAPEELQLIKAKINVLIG

[6] = target: T2, Endoribonuclease toxin MazF; assay: MazF toxin RNase activators, dose response, biochemical, fluorescence, single-stranded RNA substrate, uHTS hits (AID 588481); format: functional
[7] = target: T3, Voltage-dependent T-type calcium channel subunit alpha-1H (Homo sapiens, UniProt O95180); format: functional
[8] = target: T3, Voltage-dependent T-type calcium channel subunit alpha-1H; assay: Inhibitors of T-Type Calcium Channels. [Related pubchem assays (depositor defined):AID449739, AID463087, AID489005, AID493041, AID504579, AID504584, AID504619, AID504628]; format: functional
[9] = cytotoxicity in HPDE-C7 cells, cell-based, fluorescence, HTS (AID 430); format: functional; settings: Homo sapiens
cells [10] = format: functional, cell-based
[11] = cytotoxicity in KRAS-transformed pancreatic duct cells, primary screen, cell-based, fluorescence, HTS (AID 431); format: functional; settings: Homo sapiens;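 further: cell line used: HPDE-C7K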
Hexokinase HKDC1 = target: T4, Hexokinase HKDC1 (Homo sapiens, UniProt Q2TB90); assay: HKDC1 hexokinase inhibitors, dose response, biochemical, W721R variant (AID 504729); format: functional
T4 sequence (Q2TB90 whole entry): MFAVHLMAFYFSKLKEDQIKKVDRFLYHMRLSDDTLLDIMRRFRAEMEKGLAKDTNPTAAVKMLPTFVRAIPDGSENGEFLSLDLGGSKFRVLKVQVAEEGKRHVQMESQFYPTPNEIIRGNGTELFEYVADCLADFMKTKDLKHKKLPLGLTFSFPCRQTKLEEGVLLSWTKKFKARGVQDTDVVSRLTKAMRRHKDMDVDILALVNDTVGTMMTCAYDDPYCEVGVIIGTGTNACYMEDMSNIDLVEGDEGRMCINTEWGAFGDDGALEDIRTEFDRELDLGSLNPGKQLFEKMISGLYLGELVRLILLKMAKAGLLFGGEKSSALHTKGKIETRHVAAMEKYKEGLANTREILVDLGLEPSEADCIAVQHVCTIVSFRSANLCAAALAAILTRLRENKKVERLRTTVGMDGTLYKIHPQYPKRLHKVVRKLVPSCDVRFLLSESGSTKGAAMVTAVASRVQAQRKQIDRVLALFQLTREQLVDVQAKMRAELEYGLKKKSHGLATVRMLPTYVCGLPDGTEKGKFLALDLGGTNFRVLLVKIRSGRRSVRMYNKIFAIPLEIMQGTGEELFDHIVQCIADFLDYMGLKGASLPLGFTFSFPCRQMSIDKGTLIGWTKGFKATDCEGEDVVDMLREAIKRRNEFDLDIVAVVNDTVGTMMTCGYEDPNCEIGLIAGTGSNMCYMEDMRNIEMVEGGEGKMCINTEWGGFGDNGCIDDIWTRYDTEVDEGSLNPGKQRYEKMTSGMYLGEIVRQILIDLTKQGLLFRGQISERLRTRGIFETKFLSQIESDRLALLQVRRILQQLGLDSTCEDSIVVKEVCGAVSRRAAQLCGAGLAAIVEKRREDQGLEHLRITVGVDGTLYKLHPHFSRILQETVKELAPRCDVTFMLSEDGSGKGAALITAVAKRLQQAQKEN

cells [12] = format: functional, cell-based; remark: listed apart in the source
[13] = cytotoxicity in HEK-293T cells, dose response, cytotoxicity control for BCR NF-kB inhibitor project, luminescence, B-cell screen hits (AID 489021); format: functional, cell-based;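 further: HEK-293T cells carrying an NF-kB luciferase reporter; cells exposed to compound for about 14 hours before viability readout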
Vero = assay: cells; format: functional, cell-based; settings: Chlorocebus sabaeus
[14] = target: 72 kDa type IV collagenase (Homo sapiens, UniProt P08253); assay: Dose Response validation of uHTS RPN11 inhibitor hits using a MMP-2 Fluorescence assay.; format: functional
[15] = target: T5, Small ubiquitin-related modifier 1 (Homo sapiens, UniProt P63165); assay: inhibitors of SUMO1 partner interactions, dose response, biochemical, FRET (AID 624383); format: functional; settings: read-out: IC50_Mean
Prothrombin = Prothrombin (Bos taurus, UniProt P00735); assay: thrombin inhibition, dose response, biochemical, fluorescence polarization, uHTS hits (AID 602369); format: functional
[16] = Cytotoxicity screening for potential Inhibitors of Bacterial Capsule Biogenesis. [Related pubchem assays (depositor defined):AID488970]; format: functional
[17] = target: 26S proteasome non-ATPase regulatory subunit 14 (Homo sapiens, UniProt O00487); assay: inhibition of proteasome subunit RPN11 – biochemical, fluorescence polarization, uHTS hits, confirmation (AID 602368); format: functional
[18] = target: T5, Small ubiquitin-related modifier 1; assay: inhibitors of SUMO1 peptide binding, dose response, biochemical, fluorescence polarization, uHTS hits (AID 624382); format: functional; settings: read-out: IC50_Mean
Wee1-like protein kinase = Wee1-like protein kinase (Homo sapiens, UniProt P30291); assay: G2/M cell cycle arrest in HeLa, late-stage follow-up, mechanism study for Wee1 degradation inhibitor project, FACS, panel member Wee1 Degradation (AID 2088)
[19] = target: G2/mitotic-specific cyclin-B1 (Homo sapiens, UniProt P14635); assay: G2/M cell cycle arrest in HeLa, late-stage follow-up, mechanism study for Wee1 degradation inhibitor project, FACS, panel member Cyclin B Degradation (AID 2088)
[20] = target: T6, Long-chain-fatty-acid--AMP ligase FadD28 (Mycobacterium tuberculosis, UniProt P9WQ59); assay: Fluorescence polarization aasay to screen for inhibitors that compete for the binding of FadD28 to a bisubstrate Measured in Biochemical System Using Plate Reader - 2147-01_Inhibitor_Dose_CherryPick_Activity.; format: functional, Mycobacterium tuberculosis H37Rv
T6 sequence (P9WQ59 whole entry): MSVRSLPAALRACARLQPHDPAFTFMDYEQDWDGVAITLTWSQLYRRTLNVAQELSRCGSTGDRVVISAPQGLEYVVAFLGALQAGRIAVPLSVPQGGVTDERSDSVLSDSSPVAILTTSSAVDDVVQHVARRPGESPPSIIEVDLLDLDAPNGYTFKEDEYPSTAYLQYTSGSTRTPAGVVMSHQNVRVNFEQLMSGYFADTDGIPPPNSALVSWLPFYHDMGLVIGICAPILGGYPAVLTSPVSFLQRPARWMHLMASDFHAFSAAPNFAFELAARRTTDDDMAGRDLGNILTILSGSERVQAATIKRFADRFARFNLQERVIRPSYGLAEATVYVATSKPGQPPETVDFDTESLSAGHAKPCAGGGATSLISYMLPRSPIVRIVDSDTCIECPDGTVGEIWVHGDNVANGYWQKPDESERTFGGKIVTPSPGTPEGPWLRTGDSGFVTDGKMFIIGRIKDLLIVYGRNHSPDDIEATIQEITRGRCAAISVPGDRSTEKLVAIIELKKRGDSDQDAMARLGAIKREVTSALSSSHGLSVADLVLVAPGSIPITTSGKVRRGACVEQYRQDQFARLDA

[21] = target: Cyclin-dependent kinase 5/CDK5 activator 1 (Homo sapiens, UniProt Q00535); assay: CDK5/p35 kinase inhibitors, dose response, biochemical, cherry-picked samples, set 2 (AID 504545)
Large T antigen = Large T antigen (Simian virus 40, UniProt P03070); format: functional, Betapolyomavirus macacae;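 further: Confirmatory-stage PubChem screen for compounds that inhibit SV40 T antigen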
[22] = target: Dual specificity tyrosine-phosphorylation-regulated kinase 1A (Rattus norvegicus, UniProt Q63470); format: biochemical, Homo sapiens
Cytochrome P450 3A4 = Cytochrome P450 3A4 (Homo sapiens, UniProt P08684); settings: Potency;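 further: confirmatory qHTS run detecting inhibitors and substrates of CYP3A4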
Cytochrome P450 1A2 = target: T7, Cytochrome P450 1A2 (Homo sapiens, UniProt P05177);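 further: PubChem cytochrome P450 panel assay, CYP1A2 panel member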
T7 sequence (P05177 whole entry): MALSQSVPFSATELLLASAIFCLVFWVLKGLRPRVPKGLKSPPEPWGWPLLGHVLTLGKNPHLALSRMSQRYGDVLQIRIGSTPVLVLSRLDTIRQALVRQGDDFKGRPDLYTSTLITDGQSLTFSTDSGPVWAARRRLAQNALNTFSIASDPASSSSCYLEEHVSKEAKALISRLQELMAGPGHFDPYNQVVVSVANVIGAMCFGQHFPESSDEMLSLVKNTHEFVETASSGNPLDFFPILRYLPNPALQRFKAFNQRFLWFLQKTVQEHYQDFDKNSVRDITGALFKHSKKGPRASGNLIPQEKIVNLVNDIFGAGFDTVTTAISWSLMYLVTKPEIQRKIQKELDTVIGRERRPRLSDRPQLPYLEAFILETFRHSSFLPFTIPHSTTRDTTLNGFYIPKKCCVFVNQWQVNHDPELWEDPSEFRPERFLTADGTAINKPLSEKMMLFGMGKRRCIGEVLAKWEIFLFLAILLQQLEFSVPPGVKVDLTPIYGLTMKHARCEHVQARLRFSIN

[23] = target: NACHT, LRR and PYD domains-containing protein 3 (Homo sapiens, UniProt Q96P20); assay: NALP3 inhibitors in yeast, dose response, luminescent (AID 488799); format: functional

T3 sequence (O95180 whole entry): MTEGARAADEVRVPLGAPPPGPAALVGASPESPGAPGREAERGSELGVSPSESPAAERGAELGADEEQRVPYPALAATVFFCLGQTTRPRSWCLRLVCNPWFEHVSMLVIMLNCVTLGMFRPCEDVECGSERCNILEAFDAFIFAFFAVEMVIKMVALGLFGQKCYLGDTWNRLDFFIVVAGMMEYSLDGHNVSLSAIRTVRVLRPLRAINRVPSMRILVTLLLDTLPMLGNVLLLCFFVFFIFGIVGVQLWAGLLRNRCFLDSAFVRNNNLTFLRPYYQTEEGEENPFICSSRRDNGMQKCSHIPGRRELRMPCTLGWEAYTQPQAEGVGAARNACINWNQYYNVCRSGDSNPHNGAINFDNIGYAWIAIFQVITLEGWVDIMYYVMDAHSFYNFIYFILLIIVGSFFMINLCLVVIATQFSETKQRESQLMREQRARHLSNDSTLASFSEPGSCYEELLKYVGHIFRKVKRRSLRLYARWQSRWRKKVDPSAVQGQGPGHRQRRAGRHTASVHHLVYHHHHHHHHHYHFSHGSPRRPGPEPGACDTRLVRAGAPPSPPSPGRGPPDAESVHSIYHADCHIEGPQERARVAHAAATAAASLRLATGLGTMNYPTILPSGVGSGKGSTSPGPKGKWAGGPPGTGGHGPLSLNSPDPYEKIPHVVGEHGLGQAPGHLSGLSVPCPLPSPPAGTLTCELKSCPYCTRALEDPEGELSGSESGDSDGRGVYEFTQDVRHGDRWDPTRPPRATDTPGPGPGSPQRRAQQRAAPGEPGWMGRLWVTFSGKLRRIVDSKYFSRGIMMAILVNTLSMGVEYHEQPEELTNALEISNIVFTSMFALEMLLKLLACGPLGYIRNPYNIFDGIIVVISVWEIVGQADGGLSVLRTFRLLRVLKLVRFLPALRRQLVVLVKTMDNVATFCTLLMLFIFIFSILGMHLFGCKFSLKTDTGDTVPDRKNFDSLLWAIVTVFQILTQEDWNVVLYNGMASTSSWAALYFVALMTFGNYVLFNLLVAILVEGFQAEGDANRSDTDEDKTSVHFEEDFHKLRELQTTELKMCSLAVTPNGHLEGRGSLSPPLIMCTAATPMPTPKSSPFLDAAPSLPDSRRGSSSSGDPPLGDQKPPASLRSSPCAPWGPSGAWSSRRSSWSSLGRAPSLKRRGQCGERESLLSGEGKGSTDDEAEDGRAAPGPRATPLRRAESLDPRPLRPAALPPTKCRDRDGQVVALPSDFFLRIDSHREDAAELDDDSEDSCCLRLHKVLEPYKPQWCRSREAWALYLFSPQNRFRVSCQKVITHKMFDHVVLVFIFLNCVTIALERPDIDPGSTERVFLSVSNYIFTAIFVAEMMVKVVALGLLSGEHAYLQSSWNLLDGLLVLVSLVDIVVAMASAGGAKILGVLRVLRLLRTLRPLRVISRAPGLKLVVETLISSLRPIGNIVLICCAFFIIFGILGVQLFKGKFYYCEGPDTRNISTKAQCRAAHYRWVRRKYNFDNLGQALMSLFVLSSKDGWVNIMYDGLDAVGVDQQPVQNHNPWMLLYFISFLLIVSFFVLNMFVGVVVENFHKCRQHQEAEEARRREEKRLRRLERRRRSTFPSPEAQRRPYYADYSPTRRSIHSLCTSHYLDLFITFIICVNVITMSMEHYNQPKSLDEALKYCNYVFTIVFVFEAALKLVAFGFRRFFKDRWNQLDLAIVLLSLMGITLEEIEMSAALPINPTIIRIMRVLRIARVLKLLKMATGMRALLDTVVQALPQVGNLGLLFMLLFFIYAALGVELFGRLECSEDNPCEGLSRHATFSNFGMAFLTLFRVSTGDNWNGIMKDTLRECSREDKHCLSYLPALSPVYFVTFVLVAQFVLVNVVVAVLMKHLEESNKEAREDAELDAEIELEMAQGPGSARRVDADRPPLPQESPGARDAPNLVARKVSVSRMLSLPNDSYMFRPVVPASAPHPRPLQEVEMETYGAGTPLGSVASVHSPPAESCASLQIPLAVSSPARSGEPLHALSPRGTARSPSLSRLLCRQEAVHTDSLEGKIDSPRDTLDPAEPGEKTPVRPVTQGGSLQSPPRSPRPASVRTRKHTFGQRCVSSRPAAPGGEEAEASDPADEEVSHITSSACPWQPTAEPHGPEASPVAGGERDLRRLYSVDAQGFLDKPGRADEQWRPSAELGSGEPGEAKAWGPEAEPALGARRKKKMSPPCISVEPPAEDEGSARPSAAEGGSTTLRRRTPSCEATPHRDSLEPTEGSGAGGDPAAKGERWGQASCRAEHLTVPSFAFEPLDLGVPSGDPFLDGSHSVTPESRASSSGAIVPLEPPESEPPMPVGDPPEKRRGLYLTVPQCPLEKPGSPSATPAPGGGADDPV
T5 sequence (P63165 whole entry): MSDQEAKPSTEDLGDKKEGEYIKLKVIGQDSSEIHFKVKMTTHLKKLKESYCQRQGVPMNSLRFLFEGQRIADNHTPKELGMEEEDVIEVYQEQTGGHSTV
T1 sequence (P49327 whole entry, the tested form may be a part): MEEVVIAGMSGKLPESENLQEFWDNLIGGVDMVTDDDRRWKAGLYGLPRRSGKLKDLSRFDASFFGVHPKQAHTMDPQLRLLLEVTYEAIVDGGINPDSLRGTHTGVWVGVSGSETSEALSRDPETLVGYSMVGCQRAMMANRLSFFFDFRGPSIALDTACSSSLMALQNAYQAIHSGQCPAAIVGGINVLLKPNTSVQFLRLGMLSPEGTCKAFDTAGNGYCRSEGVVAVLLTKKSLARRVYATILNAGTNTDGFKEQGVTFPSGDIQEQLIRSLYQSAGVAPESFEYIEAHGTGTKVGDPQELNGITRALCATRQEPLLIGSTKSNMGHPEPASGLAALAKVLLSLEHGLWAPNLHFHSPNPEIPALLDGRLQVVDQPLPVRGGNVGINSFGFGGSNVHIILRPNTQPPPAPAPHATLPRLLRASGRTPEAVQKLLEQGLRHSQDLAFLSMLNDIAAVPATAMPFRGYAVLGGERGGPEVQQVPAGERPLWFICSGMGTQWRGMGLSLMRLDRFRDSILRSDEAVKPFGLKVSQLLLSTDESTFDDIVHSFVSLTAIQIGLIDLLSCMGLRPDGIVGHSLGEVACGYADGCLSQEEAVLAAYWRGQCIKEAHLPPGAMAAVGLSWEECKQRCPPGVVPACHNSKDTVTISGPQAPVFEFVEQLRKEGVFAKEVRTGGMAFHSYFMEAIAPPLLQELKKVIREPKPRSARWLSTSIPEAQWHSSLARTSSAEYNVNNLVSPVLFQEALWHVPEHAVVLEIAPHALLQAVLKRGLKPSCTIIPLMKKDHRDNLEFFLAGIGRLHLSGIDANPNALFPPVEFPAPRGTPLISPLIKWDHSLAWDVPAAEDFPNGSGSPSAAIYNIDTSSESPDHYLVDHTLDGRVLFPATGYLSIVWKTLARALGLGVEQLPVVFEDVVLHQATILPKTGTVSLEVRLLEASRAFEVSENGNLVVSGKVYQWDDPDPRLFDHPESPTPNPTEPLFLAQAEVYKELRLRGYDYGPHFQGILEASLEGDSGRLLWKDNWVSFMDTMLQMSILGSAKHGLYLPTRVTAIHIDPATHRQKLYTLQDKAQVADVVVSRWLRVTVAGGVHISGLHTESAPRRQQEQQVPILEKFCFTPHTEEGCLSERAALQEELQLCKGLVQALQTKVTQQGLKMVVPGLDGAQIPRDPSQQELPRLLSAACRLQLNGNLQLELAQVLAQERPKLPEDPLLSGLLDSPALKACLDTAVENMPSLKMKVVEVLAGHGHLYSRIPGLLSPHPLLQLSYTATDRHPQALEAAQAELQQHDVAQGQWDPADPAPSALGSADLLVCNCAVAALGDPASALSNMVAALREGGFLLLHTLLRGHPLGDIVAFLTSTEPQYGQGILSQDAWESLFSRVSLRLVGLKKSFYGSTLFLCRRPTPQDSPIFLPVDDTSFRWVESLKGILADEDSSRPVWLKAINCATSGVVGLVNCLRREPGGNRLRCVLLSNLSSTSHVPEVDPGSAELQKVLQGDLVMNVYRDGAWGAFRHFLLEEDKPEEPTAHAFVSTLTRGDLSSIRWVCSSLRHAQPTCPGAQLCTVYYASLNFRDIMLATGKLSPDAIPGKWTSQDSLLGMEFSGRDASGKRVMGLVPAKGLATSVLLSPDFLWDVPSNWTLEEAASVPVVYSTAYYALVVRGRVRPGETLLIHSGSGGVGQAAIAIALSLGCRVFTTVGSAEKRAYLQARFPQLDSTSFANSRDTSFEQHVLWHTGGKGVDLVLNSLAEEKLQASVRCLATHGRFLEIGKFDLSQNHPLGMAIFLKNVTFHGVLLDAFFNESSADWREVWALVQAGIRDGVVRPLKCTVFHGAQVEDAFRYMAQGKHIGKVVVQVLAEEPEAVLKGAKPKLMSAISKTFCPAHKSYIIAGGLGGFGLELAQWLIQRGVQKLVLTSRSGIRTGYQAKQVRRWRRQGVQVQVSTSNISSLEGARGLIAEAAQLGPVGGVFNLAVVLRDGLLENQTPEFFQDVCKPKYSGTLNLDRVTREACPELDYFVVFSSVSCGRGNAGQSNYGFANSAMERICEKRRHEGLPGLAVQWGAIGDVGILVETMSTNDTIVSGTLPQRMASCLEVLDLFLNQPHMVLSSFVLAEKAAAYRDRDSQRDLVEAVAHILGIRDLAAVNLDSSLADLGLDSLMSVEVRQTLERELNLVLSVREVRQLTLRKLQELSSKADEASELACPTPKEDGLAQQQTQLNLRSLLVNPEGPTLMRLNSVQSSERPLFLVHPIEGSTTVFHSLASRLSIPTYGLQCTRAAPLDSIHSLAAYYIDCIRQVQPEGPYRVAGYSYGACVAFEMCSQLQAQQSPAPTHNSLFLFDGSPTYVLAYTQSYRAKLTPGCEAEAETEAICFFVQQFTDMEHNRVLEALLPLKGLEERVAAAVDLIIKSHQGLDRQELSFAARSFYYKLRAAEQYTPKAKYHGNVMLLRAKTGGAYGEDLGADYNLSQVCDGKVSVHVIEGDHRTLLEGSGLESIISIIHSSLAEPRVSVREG
Dual specificity protein phosphatase 3, sequence (P51452 whole entry): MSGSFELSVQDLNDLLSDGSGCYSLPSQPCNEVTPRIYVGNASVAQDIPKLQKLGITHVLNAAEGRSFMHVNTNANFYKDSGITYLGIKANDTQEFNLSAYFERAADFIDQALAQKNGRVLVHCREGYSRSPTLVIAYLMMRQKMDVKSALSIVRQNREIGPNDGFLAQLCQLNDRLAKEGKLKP

SMILES: CC(OC(=O)/C(C#N)=C/c1ccc(N(C)C)cc1)C(=O)NCc1ccco1 (stereo not drawn)
- IC50 [1]: 6.63 µM (active)
- IC50 (Protein Rev): > 75.5 µM (not active)

SMILES: CCCCCC1CC(CC(=O)Nc2ccc([N+](=O)[O-])cc2)C(=O)O1 (stereo not drawn)
- IC50 (Fatty acid synthase [2]): 12.5 µM (active)
- Absolute IC50 (XBP1) (X-box-binding protein 1): < 10 µM
- IC50 (Fatty acid synthase [3]): 16.8 µM (active)

SMILES: Cc1cc2c(nc3s/c(=C/c4ccccc4)c(=O)n32)c(Br)c1C
- Ki [4]: 28.5 µM (inactive)

SMILES: Cc1ccc2cccc(S(=O)(=O)Nc3ccc4c(c3)OCO4)c2n1
- IC50 (Bcl-2-like protein 10): > 100 µM (inactive)

SMILES: CCN(CC)c1ccc2cc(-c3nnc(-c4ccccc4)o3)c(=O)oc2c1
- EC50 [5]: > 99 µM (inactive)
- EC50 [6]: > 99 µM (inactive)
- EC50 [7]: 0.931 µM (active)
- EC50 [8]: 3.19 µM (active)

SMILES: Cc1ccc(C)c(-n2nnnc2Sc2nnnn2-c2ccccc2)c1
- EC50 [9]: 8.15 µM (active)
- EC50 (cells [10]): > 350 µM (not active)
- EC50 [11]: 9.95 µM (active)
- IC50 (Hexokinase HKDC1): 22.6 µM (inactive)
- EC50 (cells [12]): > 350 µM (not active)
- IC50 [13]: > 80 µM (inactive)

SMILES: Cc1ccccc1NC(=NCCCN1CC1)Nc1ccccc1C
- IC50 (Vero): 20.3 µM (active)
- IC50 [14]: > 100 µM (inactive)
- IC50 [15]: 2.8 µM (active)
- IC50 (Prothrombin): 30 µM (active)
- CC50 [16]: 7.68 µM (active)
- IC50 [17]: 12.5 µM (active)
- IC50 [18]: > 66.6 µM (inactive)

SMILES: COc1ccc(NC(=O)CCCOc2cc(=O)n(C)c3ccccc23)cc1Cl
- EC50 (Wee1-like protein kinase): > 49.7 µM (inactive)
- EC50 [19]: > 49.7 µM (inactive)

SMILES: O=C1NC(=O)C(c2ccccc2[N+](=O)[O-])=C1Nc1ccc(O)c(Cl)c1
- AC50 [20]: 89.1 µM (active)
- AC50 [21]: 5.56 µM (active)
- IC50 (Large T antigen): 55.4 µM (active)
- AC50 [22]: 3.11 µM (active)
- AC50 (Cytochrome P450 3A4): 12.6 µM (inconclusive)
- AC50 (Cytochrome P450 1A2): 31.6 µM (inconclusive)

SMILES: CC(N)C(=O)OC(C)(C)Cc1ccc(Cl)cc1 (stereo not drawn) [ALAPROCLATE HYDROCHLORIDE]
- IC50 [23]: 8.02 µM (active)
